Like-named read-outs stand apart in the source and are kept apart here.
Legend:
[1] = test system: PC-9 (KRAS wild type human lung adenocarcinoma cell line); experiment: KRAS 3D-Cell Proliferation Assay, PC-9 (CellTiter-Glo 3D, 7 days); format: cell-based; conditions: PC-9 3D culture, read-out: Prolif PC9 3D ATP IC50
Procedure, shortened: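 Cells were grown as 3D cultures in ultra-low attachment plates in RPMI-1640 with 10% FBS and 2 mM glutamine. Compound dilution series (0.3% DMSO final) were added after overnight culture, and plates were incubated for 7 days at 37 °C. CellTiter-Glo 3D luminescence was normalised to DMSO and 1 uM staurosporine, and IC50 was taken from 4-parameter Hill fits.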

[2] = test system: AsPC-1 (homozygous mutant KRAS G12D human pancreatic cell line); experiment: KRAS 3D-Cell Proliferation Assay, AsPC-1 (CellTiter-Glo 3D, 7 days); format: cell-based; conditions: AsPC-1 3D culture, read-out: Prolif AsPC-1 3D ATP IC50
Protocol: Example 503: KRAS 3D-Cell Proliferation Assays. Cellular potencies of compounds are assessed by evaluating inhibition of proliferation in 3D cultures of homozygous mutant KRAS G12D human pancreatic cell lines (AsPC-1 and HPAC) as compared to a KRAS wild type human lung adenocarcinoma cell line (PC-9 and/or H1975). Cells are seeded into 384-well black round-bottom, ultra-low attachment assay plates in 50 uL cell growth medium (RPMI-1640 with 10% fetal bovine serum and 2 mM L-glutamine). After overnight incubation at 37° C. and 5% CO2, compounds solubilized in DMSO are added as dilution series to the wells in a total volume of 150 nL (0.3% DMSO final). The cells are incubated for 7 days at 37° C. and 5% CO2. Cell proliferation is quantitated by addition of 40 uL/well of CellTiter-GloO 3D (Promega), and the well contents are mixed 20× at high speed using liquid handling automation workstation (Bravo with 384-well head) and centrifuged at 1500 rpm for 2 minutes to eliminate bubbles. This reagent in combination with mechanical disruption releases the cellular ATP to promote activity in a luciferase-based enzyme/substrate chemiluminescent detection system. After a 30-minute incubation under ambient conditions with shaking and an additional 10 minutes without shaking, the luminescence is read on a plate reader (e.g. EnVision [PerkinElmer]). The results are normalized to percent inhibition based on the following control samples: DMSO (0% inhibition) and 1 uM staurosporine (100% inhibition). The normalized luminescence results are plotted against compound concentration, and the data are fit to a 4-parameter Hill equation to determine the IC50 values.

[3] = molecular target: T1, KRAS WT (Homo sapiens (Human), UniProt P01116); experiment: KRAS WT Biochemical Assay, BODIPY-GDP Exchange TR-FRET (Example 502; 0.06 nM KRAS WT, 15 nM GDP, 300 nM SOS1, 120-minute incubation); conditions: read-out: KRas HTRF IC50
Procedure, shortened: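 Biotin-tagged recombinant KRAS WT (0.06 nM) preloaded with 15 nM GDP and Tb-streptavidin, 10 min RT, then exchange started with 300 nM SOS1 plus 300 nM BODIPY-GDP in HEPES pH 7.5 buffer with MgCl2. TR-FRET 520/490 ratio read after 120 min; normalized to DMSO and full-inhibition control; IC50 from 4-parameter fit.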

[4] = molecular target: KRAS G12D (Homo sapiens (Human), UniProt P01116, G12D); experiment: KRAS G12D LoEnz Biochemical Assay, BODIPY-GDP Exchange TR-FRET (SOS1-mediated nucleotide exchange); conditions: read-out: KRas (G12D) GDP HTRF IC50
[5] = molecular target: T1, KRAS WT; experiment: KRAS WT Biochemical Assay, BODIPY-GDP Exchange TR-FRET (Example 501; 3 nM KRAS WT, 3 nM SOS1, 60-minute incubation); conditions: read-out: KRas(wt) GDP HTRF IC50
Procedure, shortened: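 SOS1-mediated exchange assay: 3 nM biotin-KRAS WT with terbium-streptavidin, started with 3 nM SOS1 and 300 nM BODIPY-GDP, HEPES pH 7.5 with MgCl2. TR-FRET (520/490 nm) read after 60 min; normalized to DMSO and full-inhibition control, IC50 from 4-parameter Hill fit.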

T1 sequence (P01116-2 other isoform, or with tags, fused parts or gaps): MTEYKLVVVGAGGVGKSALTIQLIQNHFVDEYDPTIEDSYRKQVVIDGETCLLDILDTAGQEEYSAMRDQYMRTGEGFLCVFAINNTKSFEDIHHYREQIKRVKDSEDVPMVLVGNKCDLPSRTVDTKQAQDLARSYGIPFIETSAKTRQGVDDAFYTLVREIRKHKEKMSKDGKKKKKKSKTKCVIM
Sequence of KRAS G12D (P01116-2 other isoform, or with tags, fused parts or gaps G12D): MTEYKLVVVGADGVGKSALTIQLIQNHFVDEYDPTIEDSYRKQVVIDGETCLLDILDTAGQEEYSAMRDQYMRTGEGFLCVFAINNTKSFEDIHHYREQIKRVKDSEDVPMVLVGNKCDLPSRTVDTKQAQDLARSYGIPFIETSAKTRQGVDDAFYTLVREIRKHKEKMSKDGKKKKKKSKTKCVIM

Row | Compound | IC50 ([1]; Homo sapiens, PC-9, 168 h) | IC50 ([2]; Homo sapiens, ASPC1, 168 h) | IC50 [3] | IC50 [4] | IC50 [5] | IC50 [1] | IC50 [2]
1 | Cc1ccnc(-c2nc3c4c(nc(OC[C@]56CCN5CC(F)(F)C6)nc4c2F)N2C[C@H]4CC[C@H](N4)[C@H]2[C@H](C)O3)c1C(F)(F)F [Compound 88, (5S,5aS,6S,9R)-12-(((R)-3,3-Difluoro-1-azabicyclo[3.2.0]heptan-5-yl)methoxy)-1-fluoro-5-methyl-2-(4-methyl-3-(trifluoromethyl)pyridin-2-yl)-5a,6,7,8,9,10-hexahydro-5H-4-oxa-3,10a,11,13,14-pentaaza-6,9-methanonaphtho[1,8-ab]heptalene] | 20000 nM | 20000 nM | 1620 nM | 1470 nM | – | – | –
2 | C[C@@H]1Oc2nc(-c3cc(N)nc4ccccc34)c(F)c3nc(OC[C@]45CCN4CC(F)(F)C5)nc(c23)N2C[C@H]3CC[C@H](N3)[C@@H]12 [Compound 79, 4-((5S,5aS,6S,9R)-12-(((R)-3,3-Difluoro-1-azabicyclo[3.2.0]heptan-5-yl)methoxy)-1-fluoro-5-methyl-5a,6,7,8,9,10-hexahydro-5H-4-oxa-3,10a,11,13,14-pentaaza-6,9-methanonaphtho[1,8-ab]heptalen-2-yl)quinolin-2-amine] | – | – | 1530 nM | 22.7 nM | 954 nM | 20000 nM | 4040 nM
